According to paper PMC11829042, “Proteasomes accumulate in the plant apoplast where they participate in microbe-associated molecular pattern (MAMP)-triggered pathogen defense” (Nature Communications, 2025):

Tests used:
[1] = biological target: T1, 20S proteasome core particle, PBE1(β5) subunit (chymotrypsin-like activity) (Arabidopsis thaliana, UniProt O23717); assay: Suc-LLVY-AMC fluorogenic peptidase assay with […] SylA, affinity-purified proteasomes; assay type: biochemical
T1 construct: with other subunits of the assembled 20S core particle (PAG1(α7)-FLAG)
T1 sequence (O23717 58-274): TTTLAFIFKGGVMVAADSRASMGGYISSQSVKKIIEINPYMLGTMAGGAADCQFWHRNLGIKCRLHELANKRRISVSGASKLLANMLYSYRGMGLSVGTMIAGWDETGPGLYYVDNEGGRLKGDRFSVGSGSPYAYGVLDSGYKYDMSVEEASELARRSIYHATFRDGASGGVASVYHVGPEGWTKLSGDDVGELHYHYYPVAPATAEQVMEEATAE
T1 sequence (O23715 2-249 partner): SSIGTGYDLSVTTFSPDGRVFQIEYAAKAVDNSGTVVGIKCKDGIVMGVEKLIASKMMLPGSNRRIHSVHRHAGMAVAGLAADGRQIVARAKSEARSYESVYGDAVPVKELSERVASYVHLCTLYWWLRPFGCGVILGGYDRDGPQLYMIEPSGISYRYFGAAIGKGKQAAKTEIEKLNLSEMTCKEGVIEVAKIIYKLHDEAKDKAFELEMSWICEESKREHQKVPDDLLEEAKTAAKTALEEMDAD

[2] = biological target: T2, 20S proteasome core particle, PBE1(β5) subunit (chymotrypsin-like activity) (Arabidopsis thaliana, UniProt O23717); assay: Suc-LLVY-AMC cleavage in leaf lysate and APF, […]; assay type: cell-based
T2 construct: native proteasomes in leaf crude lysate and apoplastic fluid; with other subunits of the assembled 20S core particle
T2 sequence (O23717 58-274): T1 sequence (O23717 58-274)

Compound	Suc-LLVY-AMC fluorogenic peptidase assay with 50 or 150 μM SylA, affinity-purifi [1]	Suc-LLVY-AMC cleavage in leaf lysate and APF, 50 μM [2]
CC(C)[C@H](NC(=O)N[C@H](C(=O)N[C@H]1/C=C/CCNC(=O)/C=C/[C@H](C(C)C)NC1=O)C(C)C)C(=O)O [SylA, syringolin-A]	not only effectively inhibit the proteolytic activity of affinity-purified Arabidopsis proteasomes and those in the CL	–
CC(C)C[C@H](NC(=O)[C@H](Cc1ccccc1)NC(=O)c1cnccn1)B(O)O [BTZ, 1R-3-methyl-1-2S-3-phenyl-2-pyrazin-2-carbonylamino propanoyl amino butyl boronic acid]	–	Suc-LLVY-AMC breakdown in the CL was strongly suppressed by the well-characterized CP inhibitors bortezomib (BTZ), MG132
